{
  "source": "patent US5773027A",
  "about": "“Liposomes encapsulating antiviral drugs” (priority 1995, dated 1998)",
  "key": {"[1]": {"experiment": "Pharmacokinetics in rats (plasma)", "type": "in vivo, rat (female Sprague-Dawley)", "experimental": "(§1) In brief, free and liposome-encapsulated drugs were injected to female Sprague-Dawley rats as a single intravenous bolus dose via a catheter inserted through the jugular vein of animals. At specific time points, animals were sacrificed and blood was collected in heparinized tubes and separated by centrifugation. At the same time, selected tissues were removed, washed, weighed and homogenized. Tissues and plasma were then treated according to a commercial tissue solubilizer procedure. The determination of drug and lipid levels in all samples were monitored with radioactive tracers.\nParameters were calculated from the plasma concentrationtime curves using\na noncompartmental model.\nValues are expressed as means ± SD obtained from 6 animals per group"}, "[2]": {"tested_on": "HIV-1Ada-M", "experiment": "Antiviral efficacy in primary monocyte-derived macrophages infected with HIV-1Ada-M (p24)", "type": "cell-based", "experimental": "Briefly, cells were infected with different strains of HIV with a multiplicity of infection of 1 (virus/target cell) and were treated with different concentrations of free and liposome-encapsulated drugs. Virus replication were monitored at different time intervals by measuring either the reverse transcriptase activity in cell-free supernatants or the viral p24 protein using an enzymatic test. Virus transcription was also monitored by polymerase chain reaction (PCR) analysis 24 hours after treatment using an HIV primer pair (M661/M667). The PCR evaluation was normalized with respect to the amount of human β-globin gene in cells. Cell viability was assessed using a tetrazolium-based colorimetric (MTT) assay.\nPeripheral blood mononuclear cells were suspended in seeding medium in a\n48 wellplate at a density of 3 × 10^6 cells/ml. Five days after\ninitiation of the cultures, nonadherent cells were removed by rinsing the\ncultures four times with PBS. Adherent cells were first preincubated in\nthe presence or absence of drugcontaining medium for 2 hours prior to\ninoculation with 10,000 cpm/well of the AdaM monocytotropic strain of\nHIV1. Thereafter, medium was changed once every 4 to 5 days and was\nreplaced with medium supplemented or not with ddI. Virus replication was\nmonitored by measuring p24 levels using an enzymatic assay."}, "[3]": {"tested_on": "human premonocytoid U937 cells", "experiment": "Cellular uptake in U937 cells", "settings": "in words, FIGS. 1a, 1b", "protocol": "(§2) We have performed in vitro experiments to evaluate the accumulation of free and liposome-encapsulated anti-HIV agents in murine monocyte-macrophage RAW 264.7 cells and in human premonocytoid U937 cells. In brief, experiments were performed by incubating confluent cells in culture medium in presence of different concentrations of free and liposome-encapsulated anti-HIV agents in which a small proportion of radiolabeled drugs and lipids were added. At different incubation times, the medium was removed and cells were washed and treated with a Triton X-100 solution. Drug and lipid uptake were determined by measuring the radioactivity level with a liquid scintillation counter. The protein concentration for each sample was determined with a Pierce bicinchoninic acid protein assay (Rockford, Ill.) in microtiter plates."}, "[4]": {"tested_on": "murine monocyte-macrophage RAW 264.7 cells", "experiment": "Cellular uptake in RAW 264.7 cells", "settings": "in words, FIGS. 1a-1d", "protocol": "as §2"}, "[5]": {"tested_on": "human CMV (AD169 strain)", "experiment": "Anti-CMV activity: CMV p72 protein expression in MRC-5 cells", "type": "cell-based", "settings": "MRC-5 cell line, 96 hours, in words; FIG. 2g", "experimental": "The anti-CMV activity of free and liposome-encapsulated foscarnet has been also evaluated in embryonic lung fibroblast cells (MRC-5 cell line). […] After a 96 hours incubation, cells were fixed and immunoperoxydase staining was performed using a monoclonal antibody directed against a 72-kDa immediate early CMV protein Labeled plaques were counted and results were expressed as percent of untreated infected control cells versus concentration of foscarnet."}, "[6]": {"experiment": "Tissue distribution in rats", "type": "in vivo, rat (female Sprague-Dawley)", "settings": "single i.v. dose 10 mg foscarnet/kg", "experimental": "as §1"}, "[7]": {"settings": "[^3 H]ddI, single i.v. dose 3 mg ddI/kg, rats"}, "[8]": {"settings": "[^14 C]-PFA, single i.v. dose 10 mg/kg, rats, mean ± SD"}},
  "data": [
    {"smiles": "O=c1[nH]cnc2c1ncn2[C@H]1CC[C@@H](CO)O1", "note": "[Free ddI, 2'-3'-dideoxyinosine]", "values": [
      {"measurement": "AUC0-∞, area under the plasma concentration-time curve", "setting": "[1]; [7]", "result": 5.31, "unit": "nmol/mL/h"},
      {"measurement": "Cl, systemic clearance", "setting": "[1]; [7]", "result": 2.39, "unit": "L/h/kg"},
      {"measurement": "Kel, elimination rate constant", "setting": "[1]; [7]", "result": 4.97, "unit": "h⁻¹"},
      {"measurement": "MRT, mean residence time", "setting": "[1]; [7]", "result": 12, "unit": "min"},
      {"measurement": "Vdss, steady state volume of distribution", "setting": "[1]; [7]", "result": 0.48, "unit": "L/kg"},
      {"measurement": "t1/2, elimination half-life", "setting": "[1]; [7]", "result": 8.4, "unit": "min"},
      {"measurement": "p24 (Days post-infection)", "setting": "[2]; 0.1 μM, day 7", "result": 0, "unit": "ng/mL"},
      {"measurement": "p24 (Days post-infection)", "setting": "[2]; 0.1 μM, day 13", "result": 20, "unit": "ng/mL"},
      {"measurement": "p24 (Days post-infection)", "setting": "[2]; 0.1 μM, day 17", "result": 280, "unit": "ng/mL"},
      {"measurement": "p24 (Days post-infection)", "setting": "[2]; 1 μM, day 7", "result": 0, "unit": "ng/mL"},
      {"measurement": "p24 (Days post-infection)", "setting": "[2]; 1 μM, day 13", "result": 0, "unit": "ng/mL"},
      {"measurement": "p24 (Days post-infection)", "setting": "[2]; 1 μM, day 17", "result": 0, "unit": "ng/mL"},
      {"measurement": "p24 (Days post-infection)", "setting": "[2]; 10 μM, day 7", "result": 0, "unit": "ng/mL"},
      {"measurement": "p24 (Days post-infection)", "setting": "[2]; 10 μM, day 13", "result": 0, "unit": "ng/mL"},
      {"measurement": "p24 (Days post-infection)", "setting": "[2]; 10 μM, day 17", "result": 0, "unit": "ng/mL"},
      {"measurement": "drug uptake / accumulation in cells", "setting": "[3]", "result": "a higher accumulation"},
      {"measurement": "drug uptake / accumulation in cells", "setting": "[4]", "result": "a higher accumulation"}
    ]},
    {"smiles": "O=C(O)P(=O)(O)O", "note": "[Free foscarnet, foscarnet]", "values": [
      {"measurement": "AUC0→∞, area under the plasma concentration-time curve", "setting": "[1]; [8]", "result": "48.0 ± 9.6", "unit": "nmol/mL/h"},
      {"measurement": "Cl, systemic clearance", "setting": "[1]; [8]", "result": "0.77 ± 0.15", "unit": "L/h/kg"},
      {"measurement": "Kel, elimination rate constant", "setting": "[1]; [8]", "result": "0.96 ± 0.06", "unit": "h⁻¹"},
      {"measurement": "MRT, mean residence time", "setting": "[1]; [8]", "result": "62.4 ± 4.2", "unit": "min"},
      {"measurement": "t1/2, elimination half-life", "setting": "[1]; [8]", "result": "42.6 ± 2.4", "unit": "min"},
      {"measurement": "Vdss, steady state volume of distribution", "setting": "[1]; rat, in vivo, iv, 10 mg/kg", "result": "0.80 ± 0.14", "unit": "L/kg"},
      {"measurement": "inhibitory activity against CMV p72 protein expression", "setting": "[5]", "result": "comparable inhibitory activity"},
      {"measurement": "Area under the curve, Brain", "setting": "[6]; brain", "result": 3.1, "unit": "nmol foscarnet/g tissue/h"},
      {"measurement": "Area under the curve, Eyes", "setting": "[6]; eyes", "result": 22.9, "unit": "nmol foscarnet/g tissue/h"},
      {"measurement": "Area under the curve, Liver", "setting": "[6]; liver", "result": 1.2, "unit": "nmol foscarnet/g tissue/h"},
      {"measurement": "Area under the curve, Lungs", "setting": "[6]; lungs", "result": 1.5, "unit": "nmol foscarnet/g tissue/h"},
      {"measurement": "Area under the curve, Lymph nodes", "setting": "[6]; lymph nodes", "result": 20.3, "unit": "nmol foscarnet/g tissue/h"},
      {"measurement": "Area under the curve, Spleen", "setting": "[6]; spleen", "result": 0.8, "unit": "nmol foscarnet/g tissue/h"}
    ]}
  ]
}
